Measurements from patent US20220133702A1, “CYSTIC FIBROSIS TRANSMEMBRANE CONDUCTANCE REGULATOR MODULATORS FOR TREATING AUTOSOMAL DOMINANT POLYCYSTIC KIDNEY DISEASE” (The Johns Hopkins University, priority 2020, published 2022).

Experiments:
[1] = tested on: cAMP in PN cells; test: Cyclic AMP enzyme immunoassay in cells; type: cell-based, mouse; conditions: for increase of cAMP activity: PN cells treated with forskolin or IBMX
Description: FIG. 4A, FIG. 4B, FIG. 4C, FIG. 4D, and FIG. 4E show (FIG. 4A-FIG. 4B) cAMP levels are reduced by VX-809. (FIG. 4A) cAMP levels in mouse tissue were reduced by VX-809. The kidney samples (n=6) analyzed were taken from those depicted in FIG. 1. (FIG. 4B) Confluent PN and PH cells were treated with VX-809 (10 μM) or DMSO for 16 hand then treated with forskolin (100 μM) for 30 min before the cells were harvested for the assay. Columns represent means±SEM. Statistical analysis was performed using a two-tailed Student's t-test. Each set of data is from three individual wells; Note that resting cAMP is greater in PN vs PH cells as previously shown (25). Also note that forskolin caused a large increase in cAMP. A smaller increase occurred with IBMX. However, the increase induced by forskolin alone was similar to that by IBMX plus forskolin. […] (FIG. 4C, FIG. 4D, and FIG. 4E) Adenylyl cyclase expression. (FIG. 4C) Western blot showing the expression of adenylyl cyclase (AC) 6 and AC3 in treated and control PN cells. (FIG. 4D-FIG. 4E) Columns represent means±SEM of the AC3 and AC6 expression. The data were analyzed by non-parametric t-test. The experiment was repeated four times. For all graphs, *P<0.05, **P<0.01, and ***P<0.001;
It has been shown previously in both animal and cell culture models of ADPKD that cells lacking functional PC1 have elevated cAMP levels when compared to normal. To assess the effect of CFTR correctors, cAMP activity was measured in PC1 conditional knockout mouse kidneys and in PN cells that were either left untreated or treated with VX-809. […] Cells were treated with forskolin, which increased cAMP levels drastically (FIG. 4B). It should be noted that VX-809 reduced the forskolin-induced increase in cAMP, indicating a direct action of VX-809 on adenylyl cyclase activity. […] Treating PN cells with forskolin or IBMX (FIG. 4B) increased the cAMP activity by approximately 10-fold.
Cyclic AMP assay. Confluent cells were treated with VX-809 (10 μM) or DMSO for 16 h before being harvested for assay. Cyclic AMP levels were measured with a direct cAMP Enzyme Immunoassay Kit (Sigma, #CA200) according to the manufacturer's protocol. The results are expressed as pmole/ml. Statistical analysis was performed using a two-tailed Student's t-test.

[2] = tested on: Hsp27, Hsp70, and Hsp90 in PN cells; test: Disappearance of Hsps after translation block with cycloheximide; type: cell-based, mouse; conditions: cycloheximide 25 μM alone, over 8 h
Description: FIG. 9A, FIG. 9B, FIG. 9C, FIG. 9D, FIG. 9E, FIG. 9F, FIG. 9G, and FIG. 9H show Hsp27, HSp70, and Hsp90 expression in PN cells treated with VX-809 and/or cycloheximide. (A) Pkd1 null (PN) cells were treated with VX-809 (10 μM) and/or with cycloheximide (25 μM) for indicated time points before being harvested for the assay. (FIG. 9A) Western blot showing expression of Hsp27, Hsp70, and Hsp90 in VX-809-(16 h), cycloheximide-treated, or control PN cells. ((FIG. 9B. (FIG. 9C, and (FIG. 9D) Columns represent averages±standard errors of Hsp27, Hsp70, and Hsp90 expression in cells treated with VX-809 and/or cycloheximide. ((FIG. 9E) Western blot showing expression of Hsp27, Hsp70, and Hsp90 in PN cells treated with VX-809+cycloheximide or control PN cells. ((FIG. 9F, FIG. 9G, and FIG. 9H) Columns represent averages±standard errors of Hsp27, Hsp70, and Hsp90 expression in cells treated only with cycloheximide or in control PN cells. Data were analyzed by non-parametric t-test. The experiments were repeated 3-5 times. *P<0.05, **P<0.01;
To gain more insight into the mechanism whereby VX-809 alters Hsp protein levels, translation was inhibited by using cycloheximide and the disappearance of the three Hsps was monitored. […] Hsp90 was reduced by approximately 25%, and Hsp27 was unchanged.

| Compound | increase of cAMP activity [1] | elevation of cAMP activity ([1]; forskolin, as stated at the end of Example 4) [fold] | steady-state levels of each of the Hsps [2] |
| --- | --- | --- | --- |
| C=C[C@@]1(C)CC(=O)[C@]2(O)[C@@]3(C)[C@@H](O)CCC(C)(C)[C@@H]3[C@H](O)[C@H](OC(C)=O)[C@@]2(C)O1 [forskolin] | approximately 10 fold | ~500 |  |
| C[C@@H]1C[C@@H]([C@H](O)CC2CC(=O)NC(=O)C2)C(=O)[C@@H](C)C1 [cycloheximide] |  |  | unchanged |
| CC(C)Cn1c(=O)n(C)c(=O)c2[nH]cnc21 [IBMX, 3-isobutyl-1-methylxanthine] | approximately 10 fold |  |  |
